Data reported in US8563576B2 (Vertex Pharmaceuticals Incorporated, priority 2008, dated 2013).

Key:
Format in all cases: biochemical
[1] = molecular target: PKC delta kinase (Homo sapiens, UniProt Q05655); experiment: PKC delta kinase coupled-enzyme (NADH consumption) Ki assay; conditions: 150 μM ATP, 46 nM PKC delta kinase, 30° C.
Method: (§1) An assay buffer solution was prepared which consisted of 100 mM HEPES (pH 7.5), 10 mM MgCl2, 25 mM NaCl, 0.1 mM EDTA and 0.01% Brij. […] To 16 μL of this enzyme buffer, in a 384 well plate, was added 1 μL of VRT stock solution in DMSO. The mixture was allowed to equilibrate for 10 mins at 30° C. The enzyme reaction was initiated by the addition of 16 μL stock ATP solution prepared in assay buffer to a final assay concentration of 150 μM. Initial rate data was determined from the rate of change of absorbance at 340 nm (corresponding to stoichiometric consumption of NADH) using a Molecular Devices Spectramax plate reader (Sunnyvale, Calif.) over 15 mins at 30° C. […] Ki values were calculated from initial rate data by non-linear regression using the Prism software package (Prism 4.0a, Graphpad Software, San Diego, Calif.).

[2] = molecular target: PKC alpha kinase (Homo sapiens, UniProt P17252); experiment: PKC alpha kinase coupled-enzyme (NADH consumption) Ki assay; conditions: 130 μM ATP, 4.5 nM PKC alpha kinase, 30° C.
Method: as §1, with “EDTA, 100 μM CaCl2” for “EDTA”, “130” for “150”

[3] = molecular target: PKC theta kinase (Homo sapiens, UniProt Q04759); experiment: PKC theta kinase coupled-enzyme (NADH consumption) Ki assay; conditions: 240 μM ATP, 18 nM PKC theta kinase, 30° C.
PKC theta kinase, sequence (Q04759 whole entry): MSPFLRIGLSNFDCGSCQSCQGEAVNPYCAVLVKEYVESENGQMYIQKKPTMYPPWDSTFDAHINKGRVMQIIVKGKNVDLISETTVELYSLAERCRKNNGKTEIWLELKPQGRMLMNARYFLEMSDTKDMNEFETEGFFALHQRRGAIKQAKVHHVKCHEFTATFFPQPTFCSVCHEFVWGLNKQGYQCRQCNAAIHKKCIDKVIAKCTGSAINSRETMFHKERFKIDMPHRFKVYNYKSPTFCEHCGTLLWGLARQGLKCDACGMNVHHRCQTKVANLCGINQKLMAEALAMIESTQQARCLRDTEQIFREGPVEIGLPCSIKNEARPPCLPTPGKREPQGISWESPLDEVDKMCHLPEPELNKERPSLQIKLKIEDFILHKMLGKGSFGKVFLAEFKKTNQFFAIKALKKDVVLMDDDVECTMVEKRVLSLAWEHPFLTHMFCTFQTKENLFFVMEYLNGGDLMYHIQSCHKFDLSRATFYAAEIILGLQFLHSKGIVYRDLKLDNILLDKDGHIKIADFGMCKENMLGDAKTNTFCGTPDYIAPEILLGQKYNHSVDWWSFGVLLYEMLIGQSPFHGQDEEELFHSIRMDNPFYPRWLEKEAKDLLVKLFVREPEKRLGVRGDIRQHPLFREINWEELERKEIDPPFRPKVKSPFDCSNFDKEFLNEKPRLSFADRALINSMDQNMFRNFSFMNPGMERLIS
Method: as §1, with “l An” for “An”, “To 60” for “To 16”, “added 2” for “added 1”, “of 5” for “of 16”, “of 240” for “of 150”

PKC delta kinase, sequence (Q05655 whole entry): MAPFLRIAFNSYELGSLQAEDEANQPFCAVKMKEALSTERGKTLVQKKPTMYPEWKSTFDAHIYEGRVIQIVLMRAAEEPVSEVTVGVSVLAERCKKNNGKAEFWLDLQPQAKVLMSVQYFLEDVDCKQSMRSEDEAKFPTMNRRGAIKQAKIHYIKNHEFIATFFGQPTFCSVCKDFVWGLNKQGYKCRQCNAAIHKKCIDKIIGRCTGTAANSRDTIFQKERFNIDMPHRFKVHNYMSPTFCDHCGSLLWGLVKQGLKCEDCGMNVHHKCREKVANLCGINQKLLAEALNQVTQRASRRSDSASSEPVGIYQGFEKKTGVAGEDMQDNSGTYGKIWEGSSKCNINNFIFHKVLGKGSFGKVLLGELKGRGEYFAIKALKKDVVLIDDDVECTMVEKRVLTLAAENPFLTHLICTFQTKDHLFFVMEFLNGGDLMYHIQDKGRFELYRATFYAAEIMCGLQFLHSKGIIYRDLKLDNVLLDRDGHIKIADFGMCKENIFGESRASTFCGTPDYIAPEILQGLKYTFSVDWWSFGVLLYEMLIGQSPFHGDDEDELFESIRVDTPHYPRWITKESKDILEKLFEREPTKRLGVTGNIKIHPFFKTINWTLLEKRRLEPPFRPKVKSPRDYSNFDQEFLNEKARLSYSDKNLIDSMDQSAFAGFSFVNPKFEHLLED

| Compound | Ki [1] | Ki [2] | Ki [3] |
| --- | --- | --- | --- |
| CC(C)C[C@H]1CN(c2csc(-c3n[nH]c4ncccc34)n2)CCN1 [Compound 3, (S)-4-(3-isobutylpiperazin-1-yl)-2-(1H-pyrazolo[3,4-b]pyridin-3-yl)thiazole] | < 2800 nM | > 1250 nM | < 50 nM |
| Cc1sc(N2CCN[C@@H](CC(C)C)C2)nc1-c1n[nH]c2ncccc12 [Compound 2] | > 2000 nM | > 1250 nM | < 500 nM |
| Cc1cn(C2CCNCC2)nc1-c1n[nH]c2ncccc12 [Compound 5, 3-(4-methyl-1-(piperidin-4-yl)-1H-pyrazol-3-yl)-1H-pyrazolo[3,4-b]pyridine] | > 2000 nM | > 1250 nM | > 700 nM |
| Cc1sc(N2CCCNCC2)nc1-c1n[nH]c2ncccc12 [Compound 1] | – | – | > 2800 nM |
| CC(C)C[C@H]1CN(c2cn(C)c(-c3n[nH]c4ncccc34)n2)CCN1 [Compound 6, 3-(4-((S)-3-isobutylpiperazin-1-yl)-1-methyl-1H-imidazol-2-yl)-1H-pyrazolo[3,4-b]pyridine] | > 2000 nM | > 1250 nM | > 700 nM |
| c1cnc2[nH]nc(-c3nn(C4CCNCC4)c4ccccc34)c2c1 [Compound 4, 3-(1-(piperidin-4-yl)-1H-indazol-3-yl)-1H-pyrazolo[3,4-b]pyridine] | < 2800 nM | > 1250 nM | < 500 nM |
